Assay results taken from ChEMBL document CHEMBL5608189, “Design and synthesis of unique indole-benzosulfonamide oleanolic acid derivatives as potent antibacterial agents against MRSA” (Eur J Med Chem, 2024).
Converted amounts (≈) assume the structure as drawn. The source made the active and inactive calls. No cut-off for these calls is given here.

Assays:
Staphylococcus aureus [1] = assay: Induction of morphological changes in methicillin-resistant Staphylococcus aureus assessed as appearance of wrinkled and depressed cell membrane surface at 8 times MIC incubated for 8 hrs by SEM analysis; format: functional, organism-based
Staphylococcus aureus [2] = assay: Induction of morphological changes in methicillin-resistant Staphylococcus aureus assessed as disruption of cellular structure at 8 times MIC incubated for 8 hrs by SEM analysis; format: functional, organism-based
Staphylococcus aureus [3] = assay: Antibacterial activity against Staphylococcus aureus ATCC 6538 measured after 24 hrs by susceptibility assay; format: functional
Staphylococcus aureus [4] = assay: Antibacterial activity against Staphylococcus aureus ATCC 29213 measured after 24 hrs by susceptibility assay; format: functional
[5] = tested on: Staphylococcus epidermidis; assay: Antibacterial activity against Staphylococcus epidermidis ATCC 12228 measured after 24 hrs by susceptibility assay; format: functional
Staphylococcus aureus [6] = assay: Antibacterial activity against methicillin-resistant Staphylococcus aureus measured after 24 hrs by susceptibility assay; format: functional
[7] = tested on: Staphylococcus epidermidis; assay: Antibacterial activity against Staphylococcus epidermidis ATCC 12228 assessed as inhibition of bacterial growth at 2 to 4 times MIC measured every 2 hrs for 24 hrs by time kill assay relative to control; format: functional
[8] = Hemolytic activity in rabbit red blood cells assessed as hemolytic rate at 128 times MIC measured after 1 hr by absorbance based method relative to control; format: toxicity, cell-based, Oryctolagus cuniculus, Erythrocyte; conditions: rabbit red blood cells (erythrocytes), read-out: Activity
[9] = tested on: Staphylococcus epidermidis; assay: Bactericidal activity against Staphylococcus epidermidis ATCC 12228 measured after 24 hrs; format: functional
Staphylococcus aureus [10] = assay: Antibacterial activity against methicillin-resistant Staphylococcus aureus assessed as inhibition of bacterial growth at 2 to 4 times MIC measured every 2 hrs for 24 hrs by time kill assay relative to control; format: functional
[11] = tested on: Staphylococcus epidermidis; assay: Antibacterial activity against Staphylococcus epidermidis ATCC 12228 assessed as inhibition of bacterial growth at 1 times MIC measured every 2 hrs for 24 hrs by time kill assay; format: functional, organism-based
Staphylococcus aureus [12] = assay: Bactericidal activity against Staphylococcus aureus ATCC 6538 measured after 24 hrs; format: functional
Staphylococcus aureus [13] = assay: Antibacterial activity against Staphylococcus aureus ATCC 6538 assessed as inhibition of bacterial growth at 1 times MIC measured every 2 hrs for 24 hrs by time kill assay; format: functional, organism-based
Staphylococcus aureus [14] = assay: Bactericidal activity against methicillin-resistant Staphylococcus aureus measured after 24 hrs; format: functional
Staphylococcus aureus [15] = assay: Antibacterial activity against methicillin-resistant Staphylococcus aureus assessed as delay in bacterial growth at 0.5 times MIC measured every 2 hrs for 24 hrs by time kill assay; format: functional, organism-based
Staphylococcus aureus [16] = assay: Bactericidal activity against Staphylococcus aureus ATCC 29213 measured after 24 hrs; format: functional
[17] = tested on: Staphylococcus epidermidis; assay: Antibacterial activity against Staphylococcus epidermidis ATCC 12228 assessed as delay in bacterial growth at 0.5 times MIC measured every 2 hrs for 24 hrs by time kill assay; format: functional, organism-based
Staphylococcus aureus [18] = assay: Antibacterial activity against Staphylococcus aureus ATCC 6538 assessed as inhibition of bacterial growth at 2 to 4 times MIC measured every 2 hrs for 24 hrs by time kill assay relative to control; format: functional
Staphylococcus aureus [19] = assay: Antibacterial activity against methicillin-resistant Staphylococcus aureus assessed as inhibition of bacterial growth at 1 times MIC measured every 2 hrs for 24 hrs by time kill assay; format: functional, organism-based
Staphylococcus aureus [20] = assay: Resistant development in methicillin-resistant Staphylococcus aureus assessed as increase in MIC at sub-MIC measured after 20 passages; format: functional, organism-based
Staphylococcus aureus [21] = assay: Antibacterial activity against Staphylococcus aureus ATCC 6538 assessed as delay in bacterial growth at 0.5 times MIC measured every 2 hrs for 24 hrs by time kill assay; format: functional, organism-based

| Structure (SMILES) | MIC (Staphylococcus aureus [3]) [µM] | MIC (Staphylococcus aureus [4]) [µM] | MIC [5] [µM] | MIC (Staphylococcus aureus [6]) [µM] | also measured |
| --- | --- | --- | --- | --- | --- |
| CCn1cc(C(=O)O)c(=O)c2cc(F)c(N3CCNCC3)cc21 [NORFLOXACIN] | 2 (≈ 0.639 µg/mL) | 2 (≈ 0.639 µg/mL) | 1 (≈ 0.319 µg/mL) | 4 (≈ 1.28 µg/mL) | Activity (Staphylococcus aureus [1]): Active; Activity (Staphylococcus aureus [2]): inactive |
| Cc1ccc(S(=O)(=O)NC(=O)[C@]23CCC(C)(C)C[C@H]2C2=CC[C@@H]4[C@@]5(C)Cc6c([nH]c7c(C(=O)O)cccc67)C(C)(C)[C@@H]5CC[C@@]4(C)[C@]2(C)CC3)cc1 | 1 (≈ 0.725 µg/mL) | 2 (≈ 1.45 µg/mL) | 2 (≈ 1.45 µg/mL) | 2 (≈ 1.45 µg/mL) | inhibition (INH) [7]: 100%; hemolysis at 1 h, 128 times MIC [8]: < 5%; MBC [9]: 4 µM (≈ 2.9 µg/mL); inhibition (INH) (Staphylococcus aureus [10]): 100%; Activity [11]: Active; MBC (Staphylococcus aureus [12]): 2 µM (≈ 1.45 µg/mL); Activity (Staphylococcus aureus [13]): Active; MBC (Staphylococcus aureus [14]): 16 µM (≈ 11.6 µg/mL); Activity (Staphylococcus aureus [15]): Active; MBC (Staphylococcus aureus [16]): 2 µM (≈ 1.45 µg/mL); Activity [17]: Active; inhibition (INH) (Staphylococcus aureus [18]): 100%; Activity (Staphylococcus aureus [19]): Active; Activity (Staphylococcus aureus [20]): inactive; Activity (Staphylococcus aureus [21]): Active |
| CC1(C)CC[C@]2(C(=O)NS(=O)(=O)c3ccc(C(=O)O)cc3)CC[C@]3(C)C(=CC[C@@H]4[C@@]5(C)Cc6c([nH]c7ccc(C(=O)O)cc67)C(C)(C)[C@@H]5CC[C@]43C)[C@@H]2C1 | 64 (≈ 48.3 µg/mL) | 64 (≈ 48.3 µg/mL) | 64 (≈ 48.3 µg/mL) | 64 (≈ 48.3 µg/mL) | – |
| CN1CCN(C(=O)[C@]23CCC(C)(C)C[C@H]2C2=CC[C@@H]4[C@@]5(C)Cc6c([nH]c7ccc(C(=O)O)cc67)C(C)(C)[C@@H]5CC[C@@]4(C)[C@]2(C)CC3)CC1 | > 256 | > 256 | > 256 | > 256 | – |
| CC1(C)CC[C@]2(C(=O)NS(=O)(=O)c3ccc(C(=O)O)cc3)CC[C@]3(C)C(=CC[C@@H]4[C@@]5(C)Cc6c([nH]c7cccc(C(=O)O)c67)C(C)(C)[C@@H]5CC[C@]43C)[C@@H]2C1 | 64 (≈ 48.3 µg/mL) | 128 (≈ 96.6 µg/mL) | 256 (≈ 193 µg/mL) | 256 (≈ 193 µg/mL) | – |
| CC1(C)CC[C@]2(C(=O)NS(=O)(=O)c3ccccc3)CC[C@]3(C)C(=CC[C@@H]4[C@@]5(C)Cc6c([nH]c7ccc(C(=O)O)cc67)C(C)(C)[C@@H]5CC[C@]43C)[C@@H]2C1 | 1 (≈ 0.711 µg/mL) | 2 (≈ 1.42 µg/mL) | 2 (≈ 1.42 µg/mL) | 1 (≈ 0.711 µg/mL) | – |
| CC(=O)c1cccc2c3c([nH]c12)C(C)(C)[C@@H]1CC[C@]2(C)[C@H](CC=C4[C@@H]5CC(C)(C)CC[C@]5(C(=O)NS(=O)(=O)c5ccccc5)CC[C@]42C)[C@@]1(C)C3 | 1 (≈ 0.709 µg/mL) | 2 (≈ 1.42 µg/mL) | 0.5 (≈ 0.355 µg/mL) | 1 (≈ 0.709 µg/mL) | inhibition (INH) [7]: 100%; hemolysis at 1 h, 128 times MIC [8]: < 5%; MBC [9]: 2 µM (≈ 1.42 µg/mL); inhibition (INH) (Staphylococcus aureus [10]): 100%; Activity [11]: Active; MBC (Staphylococcus aureus [12]): 2 µM (≈ 1.42 µg/mL); Activity (Staphylococcus aureus [13]): Active; MBC (Staphylococcus aureus [14]): 4 µM (≈ 2.84 µg/mL); Activity (Staphylococcus aureus [15]): Active; MBC (Staphylococcus aureus [16]): 2 µM (≈ 1.42 µg/mL); Activity [17]: Active; inhibition (INH) (Staphylococcus aureus [18]): 100%; Activity (Staphylococcus aureus [19]): Active; Activity (Staphylococcus aureus [20]): inactive; Activity (Staphylococcus aureus [21]): Active |
| CC1(C)CC[C@]2(C(=O)NS(=O)(=O)c3ccccc3)CC[C@]3(C)C(=CC[C@@H]4[C@@]5(C)Cc6c([nH]c7ccccc67)C(C)(C)[C@@H]5CC[C@]43C)[C@@H]2C1 | > 256 | > 256 | > 256 | > 256 | – |
| CC(=O)c1cccc2[nH]c3c(c12)C[C@]1(C)[C@H]2CC=C4[C@@H]5CC(C)(C)CC[C@]5(C(=O)NS(=O)(=O)c5ccccc5)CC[C@@]4(C)[C@]2(C)CC[C@H]1C3(C)C | 4 (≈ 2.84 µg/mL) | 4 (≈ 2.84 µg/mL) | 2 (≈ 1.42 µg/mL) | 4 (≈ 2.84 µg/mL) | – |
